Target: T1, recombinant human ARG1 (Homo sapiens, UniProt P05089)
T1 sequence (P05089 1-322): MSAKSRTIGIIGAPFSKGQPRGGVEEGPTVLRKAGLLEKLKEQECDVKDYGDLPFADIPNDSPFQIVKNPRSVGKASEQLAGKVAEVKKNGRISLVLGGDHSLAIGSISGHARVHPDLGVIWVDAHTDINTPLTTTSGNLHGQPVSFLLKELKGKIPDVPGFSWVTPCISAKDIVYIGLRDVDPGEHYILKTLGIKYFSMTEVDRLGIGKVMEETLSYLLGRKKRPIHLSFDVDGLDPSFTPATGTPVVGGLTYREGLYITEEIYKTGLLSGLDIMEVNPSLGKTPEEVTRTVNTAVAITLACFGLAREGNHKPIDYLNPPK
Experiment: Arginase coupled enzymatic assay using recombinant human ARG1
Format: biochemical
Details: 2 nM ARG1, 0.8 mM L-Arginine, 10 mM sodium phosphate pH 7.4, 0.1 mM MnCl2, 37° C., absorption at 570 nm; read-out: hARG1 potency (IC50)
Experimental: Purified recombinant human ARG1 and ARG2 were prepared in 50 mM Bicine, pH 8.5, 100 μM MnCl2, 20% glycerol and 1mM DTT at a final stock concentration of 14.4 μM and 7.56 μM respectively. 2.5 nM of either ARG1 or ARG2 were incubated with varying concentrations of compounds in 10 mM sodium phosphate, pH 7.4, 0.1 mM MnCl2 and 2.5% DMSO in a total volume of 40 μl in a 384-well microplate (Corning™ #3640) at 37° C. for 1 h. The arginase enzymatic reaction was initiated by addition of 10 μl of 4 mM L-Arginine pre-incubated in 10 mM sodium phosphate, pH 7.4, and 0.1 mM MnCl2 at 37° C. into the enzyme and compound mixture, giving the final reaction conditions: 2 nM of ARG1 or ARG2 and 0.8 mM of L-Arginine in 10 mM sodium phosphate, pH 7.4, 0.1 mM MnCl2 and 2% DMSO with varying concentrations of compounds. Following 2 h incubation at 37° C., the arginase enzymatic reaction was stopped by transfer of 10 μl of reaction into 10 μl of detection mix (204 μM Amino-2-Borono-6-Hexanoic Acid, 0.25 μl Arginase Enzyme mix, 0.25 μl Arginase Developer, 0.25 μl Arginase Converter Enzyme in Arginase Assay Buffer from Arginase Activity Colorimetric Assay Kit, BioVision Inc. #K755-100) in a transparent 384-well microplate (Greiner #781801). The plate was immediately put into a plate reader (Synergy™ Neo2 Multi-Mode Microplate Reader) to monitor absorption at 570 nm at 37° C. Absorption values at 12˜20 min were used to calculate compound potency. The value of the DMSO blank (MIN inhibition=100% activity) was used as a negative control. The positive control was established by adding 8 μl of enzyme and DMSO mix into 10 μl of detection mix followed by addition of 2 μl of L-Arginine (MAX inhibition=0% activity). To calculate the percent activity, Equation 1 was used. Abs570nm is the value at a given compound concentration:
A counter-screen was performed to identify any inhibition of the coupling enzymes by the test compounds. 10 μl of 0.26 mM of urea with varying concentrations of compounds in 10 mM sodium phosphate, pH 7.4, 0.1 mM MnCl2 and 2% DMSO were added into 10 μl of detection mix in place of the arginase enzymatic reaction mix. Absorption was monitored at 570 nm as described above. The values of a no substrate blank (without urea; MAX inhibition=0% activity) and a DMSO blank (MIN inhibition=100% activity) were used as positive and negative controls respectively. […] Inactivity in the counter-screen was used to confirm that results accurately reflected IC50 values for ARG1 and ARG2.

IC50 [nM] | Compound
> 1000 | N[C@@]1(C(=O)O)c2cccnc2C[C@@H]1CCCB(O)O
> 1000 | N[C@@]1(C(=O)O)c2cccc(Br)c2C[C@@H]1CCCB(O)O
> 1000 | N#Cc1cccc2c1C[C@H](CCCB(O)O)[C@]2(N)C(=O)O
100 to 1000 | CN[C@@]1(C(=O)O)c2ccccc2C[C@@H]1CCCB(O)O
< 100 | NCc1ccc2c(c1)[C@@](N)(C(=O)O)[C@@H](CCCB(O)O)C2
100 to 1000 | N[C@@]1(C(=O)O)c2cc(Cl)ccc2C[C@@H]1CCCB(O)O
> 1000 | N#Cc1ccc2c(c1)[C@@](N)(C(=O)O)[C@@H](CCCB(O)O)C2
100 to 1000 | NCCc1cccc2c1C[C@H](CCCB(O)O)[C@]2(N)C(=O)O
< 100 | CN[C@@]1(C(=O)O)c2cccc(CN)c2C[C@@H]1CCCB(O)O
> 1000 | Cc1ccc2c(c1)C[C@H](CCCB(O)O)[C@]2(N)C(=O)O
< 100 | NCc1ccc2c(c1)C[C@H](CCCB(O)O)[C@]2(N)C(=O)O
100 to 1000 | CNCc1cccc2c1C[C@H](CCCB(O)O)[C@]2(NC)C(=O)O
100 to 1000 | N[C@@]1(C(=O)O)c2ccccc2C[C@@H]1CCCB(O)O
< 100 | CN[C@@]1(C(=O)O)c2ccc(CN)cc2C[C@@H]1CCCB(O)O
100 to 1000 | N[C@@]1(C(=O)O)c2ccc(Cl)cc2C[C@@H]1CCCB(O)O
100 to 1000 | CN(C)[C@@]1(C(=O)O)c2cc(CN)ccc2C[C@@H]1CCCB(O)O
> 1000 | CN[C@@]1(C(=O)O)c2cccc(OC)c2C[C@@H]1CCCB(O)O
< 100 | NCCc1ccc2c(c1)[C@@](N)(C(=O)O)[C@@H](CCCB(O)O)C2
100 to 1000 | NCCc1ccc2c(c1)C[C@H](CCCB(O)O)[C@]2(N)C(=O)O
< 100 | CN[C@@]1(C(=O)O)c2cc(OC)c(CN)cc2C[C@@H]1CCCB(O)O
< 100 | CN[C@@]1(C(=O)O)c2cc(Cl)c(CN)cc2C[C@@H]1CCCB(O)O
< 100 | CC(N)c1ccc2c(c1)[C@@](N)(C(=O)O)[C@@H](CCCB(O)O)C2 (stereo partly shown)
< 100 | NCCc1cc2c(cc1Cl)C[C@H](CCCB(O)O)[C@]2(N)C(=O)O
100 to 1000 | CCN[C@@]1(C(=O)O)c2cc(OC)c(CN)cc2C[C@@H]1CCCB(O)O
100 to 1000 | CN[C@@]1(C(=O)O)c2c(F)cc(CN)cc2C[C@@H]1CCCB(O)O
> 1000 | NC1CN(c2ccc3c(c2)C[C@H](CCCB(O)O)[C@]3(N)C(=O)O)C1

IC50 [nM] | Compound
< 100 | CN[C@@]1(C(=O)O)c2cc(CN)c(Cl)cc2C[C@@H]1CCCB(O)O
< 100 | CN[C@@]1(C(=O)O)c2cc(CN)c(F)cc2C[C@@H]1CCCB(O)O
< 100 | CN[C@@]1(C(=O)O)c2cc([C@@H](C)N)c(F)cc2C[C@@H]1CCCB(O)O
< 100 | CN[C@@]1(C(=O)O)c2cc([C@H](C)N)c(F)cc2C[C@@H]1CCCB(O)O
< 100 | CNCc1cc2c(cc1Cl)C[C@H](CCCB(O)O)[C@]2(NC)C(=O)O
< 100 | CN[C@@]1(C(=O)O)c2cc([C@H](C)N)c(Cl)cc2C[C@@H]1CCCB(O)O
< 100 | CN[C@@]1(C(=O)O)c2cc(C(C)(C)N)c(F)cc2C[C@@H]1CCCB(O)O
< 100 | CN[C@@]1(C(=O)O)c2cc([C@@H](C)N)c(Cl)cc2C[C@@H]1CCCB(O)O
100 to 1000 | CN[C@@]1(C(=O)OC)c2cc(CN)c(Cl)cc2C[C@@H]1CCCB(O)O
< 100 | CN[C@@]1(C(=O)O)c2cc([C@@H](C)N)ccc2C[C@@H]1CCCB(O)O
100 to 1000 | CN[C@@]1(C(=O)O)c2cc(N)c(Cl)cc2C[C@@H]1CCCB(O)O
< 100 | CN[C@@]1(C(=O)O)c2cc(C(C)(C)N)c(Cl)cc2C[C@@H]1CCCB(O)O
100 to 1000 | CN[C@@]1(C(=O)O)c2cc(CO)c(Cl)cc2C[C@@H]1CCCB(O)O
100 to 1000 | CN[C@@]1(C(=O)O)c2cc([C@@H](N)C(F)(F)F)ccc2C[C@@H]1CCCB(O)O
100 to 1000 | CN[C@@]1(C(=O)O)c2cc(-c3ccccn3)c(F)cc2C[C@@H]1CCCB(O)O
< 100 | CN[C@@]1(C(=O)O)c2cc(C3(N)CC(C)(C)C3)c(F)cc2C[C@@H]1CCCB(O)O
< 100 | CN[C@@]1(C(=O)O)c2cc([C@H](C)N)c(OCC(F)(F)F)cc2C[C@@H]1CCCB(O)O
< 100 | CC[C@@](C)(N)c1cc2c(cc1F)C[C@H](CCCB(O)O)[C@]2(NC)C(=O)O
< 100 | CN[C@@]1(C(=O)O)c2cc([C@H](C)N)c(C)cc2C[C@@H]1CCCB(O)O
< 100 | CCC(N)(CC)c1cc2c(cc1F)C[C@H](CCCB(O)O)[C@]2(NC)C(=O)O
< 100 | CN[C@@]1(C(=O)O)c2cc([C@H](C)N)c(OC)cc2C[C@@H]1CCCB(O)O
< 100 | CN[C@@]1(C(=O)O)c2cc(C3CCNCC3)c(F)cc2C[C@@H]1CCCB(O)O
< 100 | CN[C@@]1(C(=O)O)c2cc(CN3CCCCC3(C)C)c(F)cc2C[C@@H]1CCCB(O)O
100 to 1000 | CN[C@@]1(C(=O)O)c2cc(CN3CCC[C@H]3C(=O)O)c(F)cc2C[C@@H]1CCCB(O)O
< 100 | CC[C@H](NC)c1cc2c(cc1F)C[C@H](CCCB(O)O)[C@]2(NC)C(=O)O
< 100 | CC[C@@H](NC)c1cc2c(cc1F)C[C@H](CCCB(O)O)[C@]2(NC)C(=O)O

Reference: US12226425B2, “Inhibitors of ARG1 and/or ARG2” (Arcus Biosciences, Inc., priority 2018, dated 2025)
